Like-named read-outs stand apart in the source and are kept apart here.
Experiments:
[1] = Hydrophilicity, statement in words; assay type: physicochemical; conditions: compared with complex TcL2O2+ (L=P53), as indicated by urinary output
[2] = Rat biodistribution of Tc-99m complexes
[3] = Heart uptake and urinary output, statement in words; conditions: species not stated
[4] = Plasma binding study (PD10 column), human plasma; assay type: in vitro ADME
Procedure: (§1) 1 ml sample of guinea pig or human plasma or saline (control) were added to 2 ml Eppendorf tubes. To these were then added 100 ul aliquots of the ^99m Tc preparation being studied. Mixing was performed by inverting the tubes several times. A 50 ul sample was then taken for counting and the remainder of the sample (1050 ul) was quantitatively transferred to the top of the PD10 column. The sample was allowed to enter the column matrix and then washed in with 1.5 mls saline. Initially a 2.5 ml aliquot was collected for counting, (dead volume) subsequently 0.5 ml aliquots were collected until a total volume of 16 mls had been used to elute the column. […] Collected fractions were counted in a γ well counter and a graph plotted of percentage recovery was calculated from initial preloading sample and cumulative counts.

[5] = Protein binding, statement in words; assay type: in vitro ADME
[6] = rat, in vivo
[7] = guinea pig, in vivo
[8] = guinea pig, serum
Procedure: as §1

[9] = saline
Procedure: as §1

[10] = in vivo
[11] = Guinea pig biodistribution of Tc-99m complexes; conditions: 60 min p.i.

For `COCCCP(CCCOC)CCP(CCCOC)CCCOC` [Compound 3], the hydrophilicity [1] was “substantially higher hydrophilicity”, the Blood ([2]; 2 min p.i.) was 18.8 % Injected dose/organ and the Heart ([2]; 2 min p.i.) was 0.44 % Injected dose/organ. The “Heart/Blood Counts/Gram Ratio” value ([2]; 2 min p.i.) was 0.35, the “Heart/Liver Counts/Gram Ratio” value ([2]; 2 min p.i.) was 1.71 and the Liver ([2]; 2 min p.i.) was 3.62 % Injected dose/organ. The Blood ([2]; 60 min p.i.) was 0.77 % Injected dose/organ, the Heart ([2]; 60 min p.i.) was 0.09 % Injected dose/organ and the “Heart/Blood Counts/Gram Ratio” value ([2]; 60 min p.i.) was 1.82. For the same compound, the “Heart/Liver Counts/Gram Ratio” value ([2]; 60 min p.i.) was 0.88, the Liver ([2]; 60 min p.i.) was 1.35 % Injected dose/organ and the heart uptake [3] was “low heart uptake”. For the same compound, the urinary output [3] was “high urinary output”.

With `CCOCC[P+]1(CCOCC)CC[P+](CCOCC)(CCOCC)[Tc-3]12(=[O])(=[O])[P+](CCOCC)(CCOCC)CC[P+]2(CCOCC)CCOCC` [[TcO2 (P53)2]^+] the “percent recovery of Tc99m activity” value ([4]; human, plasma) was 65.23%, the “binding to / interaction with human plasma” value ([4]; in words) was “no significant binding” and the protein binding [5] was “low protein binding”. For the same compound, the Blood ([6]; 2 min) was 2.25 % Injected dose/organ, the Brian ([6]; 2 min) was 0.03 % Injected dose/organ and the Heart ([6]; 2 min) was 1.66 % Injected dose/organ. The “Heart/Muscle Counts/Gram Ratio” value ([6]; 2 min) was 5.94, the “Kidney + Urine” value ([6]; 2 min) was 13.2 % Injected dose/organ and the Liver ([6]; 2 min) was 14.1 % Injected dose/organ. The “Liver + GI” value ([6]; 2 min) was 37.8 % Injected dose/organ, the Lung ([6]; 2 min) was 1.44 % Injected dose/organ and the Muscle ([6]; 2 min) was 31.6 % Injected dose/organ. For the same compound, the Blood ([6]; 60 min) was 0.28 % Injected dose/organ, the Brian ([6]; 60 min) was 0.02 % Injected dose/organ and the Heart ([6]; 60 min) was 1.68 % Injected dose/organ. For the same compound, the “Heart/Blood Counts/Gram Ratio” value ([6]; 60 min) was 86.4, the “Heart/Liver Counts/Gram Ratio” value ([6]; 60 min) was 14.4 and the “Heart/Lung Counts/Gram Ratio” value ([6]; 60 min) was 4.3. For the same compound, the “Heart/Muscle Counts/Gram Ratio” value ([6]; 60 min) was 5.74, the “Kidney + Urine” value ([6]; 60 min) was 9.29 % Injected dose/organ and the “Liver + GI” value ([6]; 60 min) was 42.5 % Injected dose/organ. It also gave a Lung ([6]; 60 min) of 0.65 % Injected dose/organ, a Muscle ([6]; 60 min) of 31.6 % Injected dose/organ and a Blood ([7]; 2 min) of 3.11 % Injected dose/organ. For the same compound, the Heart ([7]; 2 min) was 1.33 % Injected dose/organ, the “Heart/Blood Counts/Gram Ratio” value ([7]; 2 min) was 10.9 and the “Heart/Liver Counts/Gram Ratio” value ([7]; 2 min) was 1.90. The “Heart/Lung Counts/Gram Ratio” value ([7]; 2 min) was 1.2, the “Heart/Muscle Counts/Gram Ratio” value ([7]; 2 min) was 6.12 and the “Kidney + Urine” value ([7]; 2 min) was 16.7 % Injected dose/organ. The Liver ([7]; 2 min) was 11.6 % Injected dose/organ, the “Liver + GI” value ([7]; 2 min) was 38.7 % Injected dose/organ and the Lung ([7]; 2 min) was 1.14 % Injected dose/organ. It also gave a Muscle ([7]; 2 min) of 30.0 % Injected dose/organ, a Blood ([7]; 60 min) of 0.41 % Injected dose/organ and a Heart ([7]; 60 min) of 0.99 % Injected dose/organ. The “Heart/Blood Counts/Gram Ratio” value ([7]; 60 min) was 61.9, the “Heart/Liver Counts/Gram Ratio” value ([7]; 60 min) was 7.51 and the “Heart/Muscle Counts/Gram Ratio” value ([7]; 60 min) was 4.10. The “Kidney + Urine” value ([7]; 60 min) was 16.1 % Injected dose/organ, the Liver ([7]; 60 min) was 2.13 % Injected dose/organ and the “Liver + GI” value ([7]; 60 min) was 44.6 % Injected dose/organ. For the same compound, the Lung ([7]; 60 min) was 0.47 % Injected dose/organ, the Muscle ([7]; 60 min) was 43.4 % Injected dose/organ and the “percent recovery of Tc99m activity” value [8] was 90.34%. The “percent recovery of Tc99m activity” value [9] was 90.82%, the heart uptake [10] was “good heart uptake” and the “Heart/Blood Counts/Gram Ratio” value ([2]; 2 min p.i.) was 10.5. The “Heart/Liver Counts/Gram Ratio” value ([2]; 2 min p.i.) was 1.52, the “Heart/Lung Counts/Gram Ratio” value ([2]; 2 min p.i.) was 2.0 and the Liver ([2]; 60 min p.i.) was 1.62 % Injected dose/organ. For the same compound, the “Heart/Lung Counts/Gram Ratio” value [11] was 2.0.

From patent US5045302A, “Ligands and cationic complexes thereof with technetium-99m” (priority 1988, dated 1991)
